According to article PMC7144022, “Quinolinecarboxamides Inhibit the Replication of the Bovine Viral Diarrhea Virus by Targeting a Hot Spot for the Inhibition of Pestivirus Replication in the RNA-Dependent RNA Polymerase” (Molecules, 2020):

Experiments:
BVDV NADL virus = assay: CPE-based antiviral assay, BVDV NADL in MDBK cells (MTS/PMS); conditions: for EC50: Bovine viral diarrhea virus isolates and strains, MDBK, 72 h; for S.I.: selectivity index, CC50 vs EC50
[1] = Cytotoxicity assay, proliferation of exponentially growing MDBK cells (MTS/PMS); type: cell-based, bovine; conditions: bovine
Method: Assays were carried out, as described previously.

[2] = sheet CSFCII#, potency relative to TO502-2403 (EC50 0.2 µM)
[3] = sheet CSFCI#, potency relative to TO505-6180 (EC50 0.07 µM)

Row | SMILES | EC50 (BVDV NADL virus) [nM] | S.I. (BVDV NADL virus) | fold increase (BVDV NADL virus; [2]) | CC50 at 5 days [1] [nM] | fold increase (BVDV NADL virus; [3])
1 | COc1ccc2nc(NC(=O)c3cc(-c4cc(C)oc4C)nc4ccccc34)sc2c1 [CSFC-86, O=C(c2cc(nc1ccccc12)c3cc(oc3C)C)Nc4nc5ccc(cc5s4)OC] | 300 | 333 | 0.67 | > 100000 | 
2 | O=C(Nc1ccn(-c2ccccc2)n1)c1cc(-c2ccccc2F)nc2ccccc12 [CSFC-76, Fc1ccccc1c3nc2ccccc2c(c3)C(=O)Nc4ccn(n4)c5ccccc5] | 100 | 1000 | 2.00 | > 100000 | 
3 | O=C(Nc1nc2ccc(Br)cc2s1)c1cc(-c2ccccc2)nc2ccccc12 [CSFC-14, Brc1ccc2nc(NC(=O)c3cc(nc4ccccc43)c3ccccc3)sc2c1] | 1400 | 71 |  | > 100000 | 0.05
4 | O=C(Nc1ccn(-c2ccccc2F)n1)c1cc(-c2ccccc2)nc2ccccc12 [CSFC-125, Fc1ccccc1n2ccc(n2)NC(=O)c4cc(nc3ccccc34)c5ccccc5] | 1600 | 63 | 0.13 | > 100000 | 
5 | O=C(Nc1ccn(-c2ccccc2)n1)c1cc(-c2ccc(F)cc2)nc2ccccc12 [CSFC-70, Fc1ccc(cc1)c3nc2ccccc2c(c3)C(=O)Nc4ccn(n4)c5ccccc5] | 100 | 1000 | 2.00 | > 100000 | 
6 | COc1cccc2sc(NC(=O)c3cc(-c4cccs4)nc4ccccc34)nc12 [CSFC-89, COc1cccc2sc(nc12)NC(=O)c4cc(nc3ccccc34)c5cccs5] | 600 | 167 | 0.33 | > 100000 | 
7 | Cc1ccc(-n2ccc(NC(=O)c3cc(-c4cccnc4)nc4ccccc34)n2)cc1 [CSFC-140, Cc1ccc(cc1)n2ccc(n2)NC(=O)c4cc(nc3ccccc34)c5cccnc5] | 20 |  | 10.00 | 16000 | 
8 | Cc1ccc2nc(NC(=O)c3ccccc3)sc2c1 [CSFC-29, Cc1ccc2nc(NC(=O)c3ccccc3)sc2c1] | > 100000 | 1 |  | > 100000 | 0.0007
9 | O=C(Nc1ccn(-c2ccccc2)n1)c1cc(-c2cccs2)nc2c(F)cccc12 [CSFC-100, O=C(Nc1ccn(n1)c2ccccc2)c4cc(nc3c(F)cccc34)c5cccs5] | 50 | 2000 | 4.00 | > 100000 | 
10 | O=C(Nc1ccn(-c2cccc(F)c2)n1)c1cc(-c2cccnc2)nc2ccccc12 [CSFC-127, Fc1cccc(c1)n2ccc(n2)NC(=O)c4cc(nc3ccccc34)c5cccnc5] | 100000 |  | 0.002 | > 100000 | 
11 | O=C(Nc1ccn(-c2ccccc2)n1)c1cc(-c2ccccn2)nc2ccccc12 [CSFC-96, O=C(c2cc(nc1ccccc12)c3ccccn3)Nc4ccn(n4)c5ccccc5] | 200 | 500 | 1.00 | > 100000 | 
12 | O=C(Nc1ccn(-c2ccccc2)n1)c1cc(-c2cnccn2)nc2ccccc12 [CSFC-108, O=C(c2cc(nc1ccccc12)c3cnccn3)Nc4ccn(n4)c5ccccc5] | 200 | 500 | 1.00 | > 100000 | 
13 | O=C(Nc1ccn(-c2ccc(F)cc2)n1)c1cc(-c2cccnc2)nc2ccccc12 [CSFC-129, Fc1ccc(cc1)n2ccc(n2)NC(=O)c4cc(nc3ccccc34)c5cccnc5] | 1400 | 49 | 0.14 | 68000 | 
14 | COc1ccc2nc(NC(=O)c3cc(-c4ccco4)nc4ccccc34)sc2c1 [CSFC-38, COc1ccc2nc(NC(=O)c3cc(nc4ccccc43)c3ccco3)sc2c1] | 90 | 1111 |  | > 100000 | 0.78
15 | COc1ccc2nc(NC(=O)c3cc(-c4ccco4)nc4ccc(OC(F)(F)F)cc34)sc2c1 [CSFC-77, FC(F)(F)Oc1cc2c(cc1)nc(cc2C(=O)Nc3nc4ccc(cc4s3)OC)c5ccco5] | 100000 | 1 | 0.002 | > 100000 | 
